Experimental data: patent US20250197392A1, “CRYSTALLINE FORMS OF AN INHIBITOR OF THE MENIN/MLL INTERACTION” (JANSSEN PHARMACEUTICA NV, priority 2022, published 2025)

Tests used:
[1] = Dynamic vapor sorption (DVS) moisture sorption analysis; type: physicochemical; details: after 2 cycles of vapor adsorption/desorption
Experimental: The moisture sorption analysis (DVS) was performed using a ProUmid GmbH & Co. KG Vsorp Enhanced dynamic vapor sorption apparatus. The moisture profile was evaluated by monitoring vapor adsorption/desorption over the range of 0 to 90% relative humidity at 25° C. The sample weight equilibrium criteria were set at ≤0.010% change in 45 min with minimum and maximum time of acclimation at 50 min and 120 min, respectively. The moisture profile consisted of 2 cycles of vapor adsorption/desorption.

KO-52 cells = experiment: Proliferation assay (spheroid assay) KO-52 control cell line; type: cell-based, human; details: 8 days, MLL wildtype control cell line; read-out: spheroid assay_KO-52 IC50
Experimental: (§1) The anti-proliferative effect of menin/MLL protein/protein interaction inhibitor test compounds was assessed in human leukemia cell lines. The cell line MOLM14 harbors a MLL translocation and expresses the MLL fusion protein MLL-AF9, respectively, as well as the wildtype protein from the second allele. OCI-AML3 cells that carry the NPM1c gene mutation were also tested. […] KO-52 was used as a control cell line containing two MLL (KMT2A) wildtype alleles in order to exclude compounds that display general cytotoxic effects.
(§2) MOLM14 cells were cultured in RPMI-1640 (Sigma Aldrich) supplemented with 10% heat-inactivated fetal bovine serum (HyClone), 2 mM L-glutamine (Sigma Aldrich) and 50 μg/ml gentamycin (Gibco). […]
(§3) In order to assess the anti-proliferative effects, 200 MOLM14 cells, 200 OCI-AML3 cells or 300 KO-52 cells were seeded in 200 μl media per well in 96-well round bottom, ultra-low attachment plates (Costar, catalogue number 7007). […] Spheroid like growth was measured in real-time by live-cell imaging (IncuCyteZOOM, Essenbio, 4× objective) acquiring images at day 8. Confluence (%) as a measure of spheroid size was determined using an integrated analysis tool.
(§4) In order to determine the effect of the test compounds over time, the confluence in each well as a measure of spheroid size, was calculated. […]
(§5) Absolute IC50 values were calculated as percent change in confluence as follows: […]

MEIS1 mRNA expression = MEIS1 mRNA expression assay (Quantigene Singleplex) in MOLM14 cells; type: cell-based, human; details: 48 hours incubation
Experimental: MEIS1 mRNA expression upon treatment of compound was examined by Quantigene Singleplex assay (Thermo Fisher Scientific). This technology allows for direct quantification of mRNA targets using probes hybridizing to defined target sequences of interest and the signal is detected using a Multimode plate reader Envision (PerkinElmer). The MOLM14 cell line was used for this experiment. Cells were plated in 96-well plates at 3,750 cells/well in the presence of increasing concentrations of compounds. After incubation of 48 hours with compounds, cells were lysed in lysis buffer and incubated for 45 minutes at 55° C. Cell lysates were mixed with human MEIS1 specific capture probe or human RPL28 (Ribosomal Protein L28) specific probe as a normalization control, as well as blocking probes. Cell lysates were then transferred to the custom assay hybridization plate (Thermo Fisher Scientific) and incubated for 18 to 22 hours at 55° C. Subsequently, plates were washed to remove unbound materials followed by sequential addition of preamplifiers, amplifiers, and label probe. Signals (=gene counts) were measured with a Multimode plate reader Envision. IC50s were calculated by dose-response modelling using appropriate software. […] Fold changes were calculated by dividing the normalized values for the treated samples by the normalized values for the DMSO treated sample. […]

MOLM14 cells = experiment: Proliferation assay (spheroid assay) MOLM14; type: cell-based, human; details: 8 days, MLL-AF9 cell line; read-out: spheroid assay_MOLM14 IC50
Experimental: as §1, §2, §3, §4, §5

[2] = target: Menin/MLL (terbium chelate-labeled menin, FITC-MBM1 peptide) (Homo sapiens (Human), UniProt O00255); experiment: Menin/MLL homogenous time-resolved fluorescence (HTRF) assay; type: binding; details: 30 min incubation of compound with labeled menin
Menin/MLL (terbium chelate-labeled menin, FITC-MBM1 peptide), sequence (O00255 other isoform, or with tags, fused parts or gaps): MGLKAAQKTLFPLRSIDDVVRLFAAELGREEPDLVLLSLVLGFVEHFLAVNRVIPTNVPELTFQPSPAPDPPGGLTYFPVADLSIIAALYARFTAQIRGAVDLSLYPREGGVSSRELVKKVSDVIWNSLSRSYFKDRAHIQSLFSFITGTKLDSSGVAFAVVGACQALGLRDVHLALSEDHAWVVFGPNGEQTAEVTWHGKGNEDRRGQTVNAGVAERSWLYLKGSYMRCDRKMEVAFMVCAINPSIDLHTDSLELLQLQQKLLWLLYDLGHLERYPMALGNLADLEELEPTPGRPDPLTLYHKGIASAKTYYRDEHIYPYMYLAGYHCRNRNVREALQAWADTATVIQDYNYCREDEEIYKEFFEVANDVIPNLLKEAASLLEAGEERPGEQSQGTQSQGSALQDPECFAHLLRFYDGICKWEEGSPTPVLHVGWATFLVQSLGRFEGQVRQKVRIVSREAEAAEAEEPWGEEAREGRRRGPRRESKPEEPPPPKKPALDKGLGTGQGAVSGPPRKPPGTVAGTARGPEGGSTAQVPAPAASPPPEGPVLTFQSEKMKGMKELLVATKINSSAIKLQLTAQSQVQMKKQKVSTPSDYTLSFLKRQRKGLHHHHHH
Experimental: To an untreated, white 384-well microtiter plate was added 40 nL 200× test compound in DMSO and 4 μL 2× terbium chelate-labeled menin (vide infra for preparation) in assay buffer (40 mM Tris·HCl, pH 7.5, 50 mM NaCl, 1 mM DTT (dithiothreitol) and 0.05% Pluronic F-127). After incubation of test compound and terbium chelate-labeled menin for 30 min at ambient temperature, 4 μL 2×FITC-MBM1 peptide (FITC-β-alanine-[…]-NH2) (“FITC” means fluorescein isothiocyanate) in assay buffer was added, the microtiter plate centrifuged at 1000 rpm for 1 min and the assay mixtures incubated for 15 min at ambient temperature. The relative amount of menin-FITC-MBM1 complex present in an assay mixture is determined by measuring the homogenous time-resolved fluorescence (HTRF) of the terbium/FITC donor/acceptor fluorphore pair using an EnVision microplate reader (ex. 337 nm/terbium em. 490 nm/FITC em. 520 nm) at ambient temperature. The degree of fluorescence resonance energy transfer (the HTRF value) is expressed as the ratio of the fluorescence emission intensities of the FITC and terbium fluorophores (F^em 520 nm/F^em 490 nm). […]
Compound potencies were determined by first calculating % inhibition at each compound concentration according to equation 1: […]

OCI-AML3 cells = experiment: Proliferation assay (spheroid assay) OCI-AML3; type: cell-based, human; details: 8 days, NPM1c mutated cell line; read-out: spheroid assay_OCI-AML3 IC50
Experimental: as §1, §2, §3, §4, §5

CC(=O)N1CCC(CN2CC[C@@H](Cc3cn(-c4ccc(F)cc4C(=O)N(C)C(C)C)c4cncc(C)c34)C2)CC1 [Compound 51a]
solid-state form stability after DVS test (XRPD) [1]: No indication of a solid-state form change was observed
IC50 (KO-52 cells): 1200 nM
IC50 (MEIS1 mRNA expression): 11 nM
IC50 (MOLM14 cells): 13 nM
IC50 [2]: 0.024 nM
IC50 (OCI-AML3 cells): 70 nM
